Here are results for seven compounds from publication PMC11807261 (ACS infectious diseases, 2022).

Each structure is given as a SMILES string. “Also recorded” adds a separate entry of the source. Like-named read-outs stand apart in the source and are kept apart here.

For one data set, the target named is T1, Mtb GlnA1 (Mycobacterium tuberculosis, UniProt P9WN39).
T1 construct: His6 (N); made in house; host or cells: E. coli BL21(DE3)
Kind of data set: biochemical.

Data set [1] deals with recombinant human glutamine synthetase (GS) (Homo sapiens, UniProt P15104). Kind of data set: biochemical. The conditions noted are these: for inhibition of recombinant human GS: LIN at 100 µM (Figure S7). The format is biochemical.
A further data set has as its system THP-1 macrophages. The format is cell-based.
In data set [2] the test system is Mtb H37Rv within THP-1 macrophages. The format is cell-based, Mycobacterium tuberculosis.
The subject of a further data set is Mtb H37Rv. The format is cell-based, Mycobacterium tuberculosis.
Another data set can be described thus: Cytotoxicity (CC50). The format is cell-based. The conditions noted are these: African green monkey, Vero E6 cells.
The mark [3] stands for this setting: compounds directly from MMV Pathogen Box library plates, read-out: IC50 (μM), library.
[4] abbreviates: compounds resupplied from MMV, mean ± SE (n=3), read-out: IC50 (μM), resupply.

T1 sequence (P9WN39 whole entry): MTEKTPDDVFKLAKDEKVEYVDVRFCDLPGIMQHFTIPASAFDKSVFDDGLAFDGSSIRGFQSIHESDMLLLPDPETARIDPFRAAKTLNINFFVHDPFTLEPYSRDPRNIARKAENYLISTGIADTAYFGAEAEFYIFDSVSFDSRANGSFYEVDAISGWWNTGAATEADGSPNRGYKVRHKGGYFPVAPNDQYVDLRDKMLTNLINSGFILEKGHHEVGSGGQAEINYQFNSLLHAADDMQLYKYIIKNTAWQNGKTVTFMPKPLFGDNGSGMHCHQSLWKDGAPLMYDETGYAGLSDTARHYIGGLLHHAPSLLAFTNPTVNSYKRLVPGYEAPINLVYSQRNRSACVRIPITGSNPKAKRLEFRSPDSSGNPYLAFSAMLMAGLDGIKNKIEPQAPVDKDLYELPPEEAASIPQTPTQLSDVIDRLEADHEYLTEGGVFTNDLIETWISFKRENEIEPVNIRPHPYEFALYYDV
recombinant human glutamine synthetase (GS), sequence (P15104 whole entry): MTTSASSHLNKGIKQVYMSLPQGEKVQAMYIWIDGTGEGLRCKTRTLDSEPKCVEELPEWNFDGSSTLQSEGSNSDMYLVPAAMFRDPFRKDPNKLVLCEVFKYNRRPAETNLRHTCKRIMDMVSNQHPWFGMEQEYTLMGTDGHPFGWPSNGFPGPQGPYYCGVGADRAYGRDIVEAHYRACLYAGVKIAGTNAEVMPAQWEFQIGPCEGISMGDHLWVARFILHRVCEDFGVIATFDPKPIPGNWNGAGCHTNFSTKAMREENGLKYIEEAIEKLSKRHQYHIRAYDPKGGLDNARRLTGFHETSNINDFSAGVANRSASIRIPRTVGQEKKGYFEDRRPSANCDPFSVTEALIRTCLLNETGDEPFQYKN

As to `Cc1ccc(NC(=O)c2nc[nH]c2C(=O)Nc2nc3ccccc3[nH]2)c(C)c1` [MMV011903], the half-maximal inhibitory concentration (IC50) worked out at 0.78 µM at Mtb GlnA1 (setting [3]) and 1.63 ± 0.2 µM at Mtb GlnA1 (setting [4]).

Consider `CC(C)(CN)c1nc(-c2ccc(Cl)c(O)c2)c(-c2ccnc(N)n2)[nH]1` [MMV030734], for which the IC50 on Mtb GlnA1 (setting [3]) stood at 1.38 µM; on Mtb GlnA1 (setting [4]), 1.84 ± 0.09 µM.

Regarding `COc1ccc2cc(-c3nc(C(C)(C)C)[nH]c3-c3ccnc(N)c3)ccc2c1` [11a], in data set [1], the “inhibition of recombinant human GS” value is recorded as “did inhibit it considerably”. For the same compound, the IC50 in data set [1] (malachite green assay, read-out: IC50 against human GS) is around 10400 nM; at Mtb GlnA1, 0.53 ± 0.027 µM.

For the compound `C[C@]1(O)C[C@@H](c2nc(-c3ccc4ccc(-c5ccccc5)nc4c3)c3c(N)nccn32)C1` [LIN, linsitinib], in data set [1], the “inhibition of recombinant human GS” value is on record as “did not inhibit; also recorded: does not inhibit”. Moreover, in the data set with THP-1 macrophages, the “level of mTOR phosphorylation” value is listed as “reduce the level of mTOR phosphorylation” and the “level of p62 (autophagy flux)” value is recorded as “seemingly reduced”. Moreover, in the data set with THP-1 macrophages (10 μM LIN, Western blotting), the “apoptosis induction (cleaved caspase 3)” value is on record as “no apoptosis induction” and the “autophagy induction (LC3B-II converted from LC3B-I)” value is “induced autophagy”. The “autophagosome and autolysosome forming puncta” value with THP-1 macrophages (mRFP-GFP-LC3 reporter THP-1, 10 μM LIN 24 h, Mtb-infected and uninfected) is reported as “elevated”. In data set [2], the “intracellular Mtb killing in combination with bedaquiline (CFU)” value is “eliminated more intracellular Mtb and improved the killing effect of BDQ”; the “survival of intracellular Mtb (CFU)” value is listed as “significantly decreased the survival”. Also, the “growth inhibition concentration (GIC)” value in the data set on Mtb H37Rv is given as ~ 21 μM. The compound further showed a CC50 in “Cytotoxicity (CC50)” of 67500 nM.

`Cc1nc(-c2ccccn2)nc(N2CCC(Cc3ccccc3)C2)c1Cl` (stereo not shown) [MMV659004]: the IC50 came out at 1.14 µM on Mtb GlnA1 (setting [3]) and 0.66 ± 0.04 µM on Mtb GlnA1 (setting [4]).

`CP(=O)(O)CCC(N)C(=O)O` (racemic) [PPT, DL-phosphinothricin] yielded a half-inhibitory concentration (IC50) against Mtb GlnA1 of 4.45 ± 0.19 µM.

On to `c1ccc(-c2nc(NC3CCCCC3)cc(C3CC3)n2)nc1` [MMV021013], for which the 50% inhibitory concentration (IC50) on Mtb GlnA1 (setting [3]) is 0.69 µM; on Mtb GlnA1 (setting [4]) it was 0.69 ± 0.08 µM.
